Assay results as given in patent US20250360126A1, “TARGETING AN ENZYME REQUIRED FOR ACUTE MYELOID LEUKEMIA” (Albert Einstein College of Medicine, priority 2023, published 2025).

What was measured:
[1] = target: T1, recombinant human TTLL4 catalytic domain (Homo sapiens, UniProt Q14679); assay: TTLL4 activity immunoassay (anti-glu immuno-detection of glutamylated Nap2 substrate); format: biochemical; settings: 0.2 millimolar ATP, 1 millimolar glutamic acid, 30° C., 10 minutes, read-out: in vitro TTLL4 IC50
T1 construct: TTLL4 catalytic domain (composed of residues 561-1199); made in house; host or cells: E. coli
T1 sequence (Q14679 561-1199): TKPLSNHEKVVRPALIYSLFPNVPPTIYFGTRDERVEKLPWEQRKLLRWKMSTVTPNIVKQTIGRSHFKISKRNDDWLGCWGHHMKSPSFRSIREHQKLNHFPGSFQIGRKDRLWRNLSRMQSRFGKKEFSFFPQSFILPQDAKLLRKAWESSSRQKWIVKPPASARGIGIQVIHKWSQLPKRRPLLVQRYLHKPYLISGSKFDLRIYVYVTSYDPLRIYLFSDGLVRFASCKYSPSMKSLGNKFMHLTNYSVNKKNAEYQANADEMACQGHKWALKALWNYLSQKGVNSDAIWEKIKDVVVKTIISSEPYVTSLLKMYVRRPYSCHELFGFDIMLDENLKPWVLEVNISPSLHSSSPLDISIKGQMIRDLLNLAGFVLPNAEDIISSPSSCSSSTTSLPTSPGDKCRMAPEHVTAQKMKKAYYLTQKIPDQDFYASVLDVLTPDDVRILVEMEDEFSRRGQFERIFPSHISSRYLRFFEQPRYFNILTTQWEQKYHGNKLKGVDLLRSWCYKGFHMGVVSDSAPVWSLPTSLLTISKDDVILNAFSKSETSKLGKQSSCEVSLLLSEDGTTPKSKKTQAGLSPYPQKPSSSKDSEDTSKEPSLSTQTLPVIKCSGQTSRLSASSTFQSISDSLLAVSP
Description: To measure TTLL4 activity and inhibition by lead compounds, we used an immunoassay. The antibody against mono-glutamate-glutamylation was prepared by immunizing white rabbits with the following peptide: MY {Glu (Glu)} DDEEESEAQGPKC (based on studies published here: doi: 10.1016/S0091-679X (10) 95003-6). The serum was purified by cross-adsorption against a non-glutamylated peptide: MYEDDEEESEAQGPKC. The purified antibody was stored in PBS with 0.02% Preclin 300. The final ELISA titer from the purified antibodies against the glutamylated peptide was >1:512,000. These antibodies are noted as “anti-glu”.
To measure activity, recombinant human TTLL4 catalytic domain (composed of residues 561-1199) was produced in E. coli and purified via nickel-affinity and size exclusion column (Superdex 200) chromatography. Similarly, the glutamate-glutamylation substrate Nap2 (gene from Xenopus tropicalis) was produced in E. coli and purified via nickel-affinity size exclusion column (Superdex 200) chromatography. […] Intensity measurements were quantified with the Microar-ray Profile plugin for FIJI/ImageJ and analyzed with a 4-parameter model in Graphpad Prism v9.

[2] = system: OCI-AML3 human cell line (degron-inducible NPM1c); assay: NPM1c degradation in OCI-AML3 NPM1c-degron cells, glutamate-glutamylation by Western blot; format: cell-based
Description: FIGS. 3A and 3B illustrate that TTLL4 catalyzes NPM1 and NPM1c glutamate-glutamylation. FIG. 3A is a Western blot of an AML3-NPM1c-degron cell line with a doxycycline (DOX)-inducible TTLL4 shRNA knockdown. Scrambled shRNA or TTLL4 shRNA cells were treated +/−DOX, resulting in loss of glutamate-glutamylation on both NPM1c-degron and NPM1 wild type proteins (top gel, +DOX). FIG. 3B is a summary of a qRT-PCR analysis of shTTLL4 cells treated with DOX.
A doxycycline-inducible TTLL4 shRNA was introduced to this cell line. TTLL4kd eliminated NPM1c glutamate-glutamylation and reduced cellular proliferation (FIGS. 3A, 3B, and 4A). In addition, CRISPR-Cas9 mediated knockout of TTLL4 in OCI-AML3 cells reduced colony formation in methylcellulose (FIG. 4B, methylcellulose colony forming assays are used to detect cell proliferation and hematopoietic/progenitor activity) and increased apoptosis (FIG. 4C).

IC50 [1]	SMILES	glutamate-glutamylation of the NPM1 wt protein after degradation of NPM1c [2]
9 µM	COc1ccc(-c2cc3c(SCC(=O)Nc4c(C)cc(C)cc4C)nccn3n2)cc1 [Candidate 1]	–
40 µM	O=C(Cn1c(=O)c(F)cn(C2CCCO2)c1=O)N1N=C(c2ccc(Cl)cc2)CC1c1ccco1 (stereo not drawn) [Candidate 2]	–
–	CC[C@H](C(=O)N1CCCC[C@H]1C(=O)O[C@H](CCc1ccc(OC)c(OC)c1)c1ccccc1OCC(=O)NCCCCCCOc1cccc2c1C(=O)N(C1CCC(=O)NC1=O)C2=O)c1cc(OC)c(OC)c(OC)c1 (stereo partly drawn) [dTAG-13]	loss of glutamate-glutamylation of the NPM1 wt protein
